Source: US20250250642A1, “APOE GENOTYPING IN CANCER PROGNOSTICS AND TREATMENT” (The Rockefeller University, priority 2019, published 2025)

Assays:
solid cancers = assay: RGX-104 in patients with solid cancers, radiographic tumor response by ApoE genotype; format: in vivo, human; conditions: monotherapy or combination with docetaxel, nivolumab or ipilimumab
Procedure: RGX-104 was administered to patients with solid cancers as a monotherapy or in combination with either docetaxel, nivolumab, or ipilimumab. Fifty-one patients were evaluable for both radiographic assessment of tumor response and ApoE genotype. Below is a table showing the number of patients with each genotype and the number of clinical responses (Partial Responses) to the therapy.

YUMM1.7 tumors = assay: Growth of YUMM1.7 tumors in human APOE knock-in mice under LXR-agonistic treatment; format: in vivo, mouse; conditions: RGX-104 in chow, approximate target dose 100 mg/kg body weight, from day 3 post injection
Procedure: To assess the impact of APOE genotype on the growth of syngeneic melanoma, 1×10^5 YUMM1.7 cells were subcutaneously injected into the flank of 6-10-weeks-old, sex-matched human APOE targeted replacement mice. Cells were injected in a total volume of 100 μL, and YUMM1.7 cells were mixed 1:1 with growth factor reduced Matrigel (356231, Corning) before injection. Tumor size was measured on the indicated days using digital calipers, and tumor volume was calculated as (small diameter)^2×(large diameter)×Π/6. In experiments employing YUMMER1.7 cells, 5×10^5 cells resuspended in PBS were injected subcutaneously into the flank. For LXR-agonistic treatment, mice were administered chow supplemented with the synthetic LXR-agonist RGX-104 (Rgenix (Tavazoie, M., et al. (2018) Cell, 172 (4), 825-840)) at 628.5 mg/kg chow (Research Diets, approximate target dose of 100 mg/kg body weight) starting on day 3 post injection. For anti-PD1 treatment, mice were injected intraperitoneally with 250 μg and 125 μg of anti-PD-1 antibody (BioXCell, clone RMP1-14) on days 6 and 9 post tumor cell injection, respectively. Control mice received PBS injections on the same days. For survival analysis in the YUMMER1.7 model, mice were euthanized when the tumor volume exceeded 1000 mm^3. Therapy responses were considered complete (CR, complete response) when tumor volumes fell below 16 mm^3 (lowest limit of detection).

[1] = ApoE genotype E2/E3 (10 patients)
[2] = ApoE genotype E2/E4 (3 patients)
[3] = ApoE genotype E3/E3 (30 patients)
[4] = ApoE genotype E3/E4 (8 patients)

Q: C[C@H](CCOc1cccc(CC(=O)O)c1)N(Cc1cccc(C(F)(F)F)c1Cl)CC(c1ccccc1)c1ccccc1 [RGX-104, 2-[3-[(3R)-3-[[2-chloro-3-(trifluoromethyl)phenyl]methyl-(2,2-diphenylethyl)amino]butoxy]phenyl]acetic acid] was tested. Which “Number of Partial Responses” value (solid cancers; [1]) did it give?
A: 0

Q: What about the “Percent of patients with a Partial Response” value (from here on “Percent of patients”) (solid cancers; [1]) of the same compound?
A: 0%

Q: What about the “Number of Partial Responses” value (solid cancers; [2]) of the same compound?
A: 1

Q: And the “Percent of patients” value (solid cancers; [2])?
A: 33.3%

Q: What about the “Number of Partial Responses” value (solid cancers; [3]) of the same compound?
A: 1

Q: What about the “Percent of patients” value (solid cancers; [3]) of the same compound?
A: 3.3%

Q: And the “Number of Partial Responses” value (solid cancers; [4])?
A: 1

Q: What about the “Percent of patients” value (solid cancers; [4]) of the same compound?
A: 12.5%

Q: And the “efficacy of LXR agonism (tumor growth)” value (YUMM1.7 tumors; APOE2 mice)?
A: completely abrogated

Q: And the “efficacy of LXR agonism (tumor growth)” value (YUMM1.7 tumors; APOE4 mice)?
A: robust anti-tumor effects
